Test results as given in ChEMBL document CHEMBL1139998, “Design, synthesis, and binding studies of bidentate Zn-chelating peptidic inhibitors of glyoxalase-I” (Bioorg Med Chem Lett, 2007).

Biological target: T1, Glyoxalase I (Saccharomyces cerevisiae S288c, UniProt P50107)
T1 sequence (P50107 whole entry): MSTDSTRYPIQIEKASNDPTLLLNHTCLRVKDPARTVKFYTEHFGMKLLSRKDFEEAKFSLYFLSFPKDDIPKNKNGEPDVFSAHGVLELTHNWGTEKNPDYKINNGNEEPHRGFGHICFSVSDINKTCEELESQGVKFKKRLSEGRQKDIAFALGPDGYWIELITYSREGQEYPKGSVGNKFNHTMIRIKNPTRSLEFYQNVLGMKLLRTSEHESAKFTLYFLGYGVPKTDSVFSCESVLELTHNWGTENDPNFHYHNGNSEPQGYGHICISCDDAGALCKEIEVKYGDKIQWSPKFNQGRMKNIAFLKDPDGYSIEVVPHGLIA
Test: Inhibition of yeast glyoxalase 1

SMILES: N[C@@H](CCC(=O)N[C@@H](CCC(=O)CC(=O)OCc1ccc(Br)cc1)C(=O)NCC(=O)O)C(=O)O
- Ki: 66.9 µM

SMILES: COC(=O)CC(=O)CC[C@H](NC(=O)CC[C@H](N)C(=O)O)C(=O)NCC(=O)O
- Ki: 112 µM
